Laboratory results taken from patent US6693095B2, “Antibacterial substituted 7-acylamino-3-(methylhydrazono) methyl-cephalosporins and intermediates” (priority 1997, dated 2004).

Tested on: multi-drug resistant Pneumococcus
Assay: Agar Dilution Test (NCCLS), MHK
Type: cell-based, Pneumococcus pneumoniae
Conditions: against multi-drug resistant Pneumococcus
Description: In particular, the active compounds of the invention show antimicrobial, e.g. antibacterial, activity against aerobic and anaerobic growing bacteria, e.g. gram negative and gram positive bacteria such as Enterobacter, e.g. Enterobacter cloacae; Enterococcus, e.g. Enterococcus faecalis, Enterococcus faecium; Moraxella, e.g. Moraxella catarrhalis; Haemophilus, e.g. Haemophilus influenza; Klebsiella, e.g. Klebsiella edwardsii, Klebsiella pneumoniae; Streptococcus, e.g. Streptococcus pyogenes; Staphylococcus, e.g. Staphylococcus aureus MSSA (methicillin sensitive strains); Staphylococcus aureus MRSA (methicillin resistant strains); Escherichia, e.g. Escherichia coli; Proteus, e.g. Proteus mirabilis, Salmonella, e.g. Salmonella typhimurium, Serratia, e.g. Serratia marcescens, Pseudomonas, e.g. Pseudomonas aeruginosa; Pneumococci, e.g. Pneumococcus pneumoniae (penicillin sensitive and mult-drug resistant strains); in vitro in the Agar DilutionTest for bacteria according to National Commitee for Clinical Laboratory Standards (NCCLS) 1993,
Document-M7-A3 Vol.13, No. 25: “Methods for dilution Antimicrobial Susceptibility Tests for Bacteria that Grow Aerobically-Third Edition, Approved Standard”; and
Document M11-A3 for anaerobic bacteria […]

## 7-(((5-amino-1,2,4-thiadiazol-3-yl)-(Z)-(fluoromethoxyimino)acetyl)amino)-3-(imino-1-piperazinyhmethyl)medtylhydrazono)methyl-3-cephem4-carboxylic acid [Example 1]
  MHK: 0.4 µg/mL
